Assays:
[1] = target: T1, Muscarinic acetylcholine receptor M1 (Homo sapiens) (UniProt P11229); test: Agonist activity at human muscarinic M1 acetylcholine receptor expressed in CHO cells assessed as calcium mobilization at 0.3 uM by FLIPR assay; assay type: functional, cell-based
T1 sequence (whole entry): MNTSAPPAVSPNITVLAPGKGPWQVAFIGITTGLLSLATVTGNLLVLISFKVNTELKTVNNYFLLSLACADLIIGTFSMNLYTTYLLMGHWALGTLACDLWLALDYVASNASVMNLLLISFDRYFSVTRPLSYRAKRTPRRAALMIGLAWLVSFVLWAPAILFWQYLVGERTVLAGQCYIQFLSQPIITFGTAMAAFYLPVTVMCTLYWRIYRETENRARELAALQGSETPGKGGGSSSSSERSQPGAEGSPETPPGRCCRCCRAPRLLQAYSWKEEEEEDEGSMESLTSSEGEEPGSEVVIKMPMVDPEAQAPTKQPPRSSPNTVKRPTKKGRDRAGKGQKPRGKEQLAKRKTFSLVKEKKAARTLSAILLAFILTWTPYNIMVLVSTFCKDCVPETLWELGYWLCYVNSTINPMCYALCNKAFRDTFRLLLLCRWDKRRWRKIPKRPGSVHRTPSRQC

Cytochrome P450 2C9 = Cytochrome P450 2C9 (Homo sapiens, UniProt P11712); test: Inhibition of CYP2C9 (unknown origin); assay type: ADME
Cytochrome P450 2D6 = Cytochrome P450 2D6 (Homo sapiens, UniProt P10635); test: Inhibition of CYP2D6 (unknown origin); assay type: ADME
[2] = target: Histamine H1 receptor (Homo sapiens) (UniProt P35367); test: Binding affinity to histamine H1 receptor (unknown origin) at 3 uM by radioligand-binding assay
[3] = target: Muscarinic acetylcholine receptor M1 (Homo sapiens, UniProt P11229); test: Agonist activity at human muscarinic M1 acetylcholine receptor expressed in CHO cells assessed as calcium mobilization by FLIPR assay; assay type: functional, cell-based
[4] = target: T2, Muscarinic acetylcholine receptor M2 (Homo sapiens) (UniProt P08172); test: Agonist activity at human muscarinic M2 acetylcholine receptor expressed in CHO cells co-expressing Galpha16 assessed as calcium mobilization at 30 uM by FLIPR assay; assay type: functional, cell-based
T2 sequence (whole entry): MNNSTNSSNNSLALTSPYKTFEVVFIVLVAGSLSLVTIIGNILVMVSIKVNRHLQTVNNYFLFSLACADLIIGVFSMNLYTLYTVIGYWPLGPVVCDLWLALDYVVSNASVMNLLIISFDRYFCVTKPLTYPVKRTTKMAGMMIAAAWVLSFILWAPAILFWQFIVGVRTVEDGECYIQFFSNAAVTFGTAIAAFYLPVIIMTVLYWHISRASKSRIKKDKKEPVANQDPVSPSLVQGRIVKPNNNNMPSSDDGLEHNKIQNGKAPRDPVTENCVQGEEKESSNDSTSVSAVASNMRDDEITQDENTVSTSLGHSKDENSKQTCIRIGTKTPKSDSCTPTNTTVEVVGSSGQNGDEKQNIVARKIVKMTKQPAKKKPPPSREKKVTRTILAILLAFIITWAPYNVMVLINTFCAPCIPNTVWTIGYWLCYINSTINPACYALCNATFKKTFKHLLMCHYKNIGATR

[5] = target: Beta-1 adrenergic receptor (Homo sapiens) (UniProt P08588); test: Agonist activity at adrenergic beta1 receptor (unknown origin) expressed in CHO cells assessed as calcium mobilization at 3 uM; assay type: functional, cell-based
[6] = target: D(1A) dopamine receptor (Homo sapiens) (UniProt P21728); test: Agonist activity at dopamine D1 receptor (unknown origin) expressed in CHO cells assessed as calcium mobilization at 3 uM; assay type: functional, cell-based
[7] = target: D(3) dopamine receptor (Homo sapiens) (UniProt P35462); test: Agonist activity at dopamine D3L receptor (unknown origin) expressed in CHO cells assessed as calcium mobilization at 3 uM; assay type: functional, cell-based
[8] = target: Mu-type opioid receptor (Homo sapiens) (UniProt P35372); test: Agonist activity at ppiate mu receptor (unknown origin) expressed in CHO cells assessed as calcium mobilization at 3 uM; assay type: functional, cell-based
[9] = target: 5-hydroxytryptamine receptor 1A (Homo sapiens) (UniProt P08908); test: Agonist activity at 5-HT1a receptor (unknown origin) expressed in CHO cells assessed as calcium mobilization at 3 uM; assay type: functional, cell-based
[10] = target: 5-hydroxytryptamine receptor 1B (Homo sapiens) (UniProt P28222); test: Agonist activity at 5-HT1B receptor (unknown origin) expressed in CHO cells assessed as calcium mobilization at 3 uM; assay type: functional, cell-based
[11] = target: P2Y purinoceptor 1 (Homo sapiens) (UniProt P47900); test: Agonist activity at P2Y1 receptor (unknown origin) expressed in CHO cells assessed as calcium mobilization at 3 uM; assay type: functional, cell-based
[12] = target: Adenosine receptor A1 (Homo sapiens) (UniProt P30542); test: Antagonist activity at adenosine a1 receptor (unknown origin) expressed in CHO cells assessed as calcium mobilization at 3 uM; assay type: functional, cell-based
CHO = test: Antagonist activity at GaBaB receptor (unknown origin) expressed in CHO cells assessed as calcium mobilization at 3 uM; assay type: cell-based; details: Homo sapiens
[13] = target: Cysteinyl leukotriene receptor 2 (Homo sapiens) (UniProt Q9NS75); test: Antagonist activity at CysLT2 receptor (unknown origin) expressed in CHO cells assessed as calcium mobilization at 3 uM; assay type: functional, cell-based
[14] = target: 5-hydroxytryptamine receptor 1E (Homo sapiens) (UniProt P28566); test: Antagonist activity at 5-HT1E receptor (unknown origin) expressed in CHO cells assessed as calcium mobilization at 3 uM; assay type: functional, cell-based
[15] = target: 5-hydroxytryptamine receptor 2C (Homo sapiens) (UniProt P28335); test: Antagonist activity at 5-HT2C receptor (unknown origin) expressed in CHO cells assessed as calcium mobilization at 3 uM; assay type: functional, cell-based
[16] = target: 5-hydroxytryptamine receptor 5A (Homo sapiens) (UniProt P47898); test: Antagonist activity at 5-HT5a receptor (unknown origin) expressed in CHO cells assessed as calcium mobilization at 3 uM; assay type: functional, cell-based
Chain of 5-hydroxytryptamine receptor 5A (Homo sapiens) (P47898 whole entry): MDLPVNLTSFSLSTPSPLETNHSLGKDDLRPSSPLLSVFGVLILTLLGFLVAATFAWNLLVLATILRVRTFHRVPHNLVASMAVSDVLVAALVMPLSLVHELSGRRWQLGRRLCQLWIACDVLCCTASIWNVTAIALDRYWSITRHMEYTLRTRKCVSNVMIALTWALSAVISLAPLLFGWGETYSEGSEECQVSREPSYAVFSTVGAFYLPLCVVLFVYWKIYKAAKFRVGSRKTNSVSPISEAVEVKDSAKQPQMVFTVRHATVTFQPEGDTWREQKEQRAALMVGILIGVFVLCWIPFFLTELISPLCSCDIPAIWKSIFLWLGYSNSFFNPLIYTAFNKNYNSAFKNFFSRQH

Chain of Mu-type opioid receptor (Homo sapiens) (P35372 whole entry): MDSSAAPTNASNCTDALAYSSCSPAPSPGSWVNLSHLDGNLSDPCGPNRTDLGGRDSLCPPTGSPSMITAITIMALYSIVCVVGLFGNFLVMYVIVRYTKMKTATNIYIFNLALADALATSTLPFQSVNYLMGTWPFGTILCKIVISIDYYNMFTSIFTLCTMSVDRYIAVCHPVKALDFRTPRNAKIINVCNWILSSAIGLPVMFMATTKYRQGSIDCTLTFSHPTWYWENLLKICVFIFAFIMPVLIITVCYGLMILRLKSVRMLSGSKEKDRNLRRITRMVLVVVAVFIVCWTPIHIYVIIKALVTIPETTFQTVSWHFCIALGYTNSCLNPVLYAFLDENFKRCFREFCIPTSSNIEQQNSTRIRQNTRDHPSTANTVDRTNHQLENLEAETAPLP
Chain of 5-hydroxytryptamine receptor 1E (Homo sapiens) (P28566 whole entry): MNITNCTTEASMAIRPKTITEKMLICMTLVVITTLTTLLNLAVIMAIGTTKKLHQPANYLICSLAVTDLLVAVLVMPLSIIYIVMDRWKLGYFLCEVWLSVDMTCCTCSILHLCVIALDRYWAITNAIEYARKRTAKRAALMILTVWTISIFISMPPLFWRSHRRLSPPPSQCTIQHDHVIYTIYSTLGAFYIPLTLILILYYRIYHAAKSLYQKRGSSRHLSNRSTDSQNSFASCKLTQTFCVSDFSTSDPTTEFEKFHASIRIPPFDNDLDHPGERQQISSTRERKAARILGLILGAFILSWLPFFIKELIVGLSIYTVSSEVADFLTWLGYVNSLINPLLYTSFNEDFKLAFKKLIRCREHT
Chain of 5-hydroxytryptamine receptor 2C (Homo sapiens) (P28335 whole entry): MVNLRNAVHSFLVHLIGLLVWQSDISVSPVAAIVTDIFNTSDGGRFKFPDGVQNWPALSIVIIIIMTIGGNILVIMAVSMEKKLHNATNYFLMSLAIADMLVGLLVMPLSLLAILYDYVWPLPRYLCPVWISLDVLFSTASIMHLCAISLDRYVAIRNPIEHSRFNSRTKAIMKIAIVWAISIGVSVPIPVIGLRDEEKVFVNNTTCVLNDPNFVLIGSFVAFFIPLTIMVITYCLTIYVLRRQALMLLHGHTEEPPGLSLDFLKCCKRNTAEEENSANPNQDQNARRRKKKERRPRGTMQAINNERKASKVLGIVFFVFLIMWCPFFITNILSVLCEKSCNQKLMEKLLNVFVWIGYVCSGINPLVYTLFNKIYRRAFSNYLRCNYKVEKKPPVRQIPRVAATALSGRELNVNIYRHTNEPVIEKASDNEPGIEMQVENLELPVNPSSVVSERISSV
Chain of Histamine H1 receptor (Homo sapiens) (P35367 whole entry): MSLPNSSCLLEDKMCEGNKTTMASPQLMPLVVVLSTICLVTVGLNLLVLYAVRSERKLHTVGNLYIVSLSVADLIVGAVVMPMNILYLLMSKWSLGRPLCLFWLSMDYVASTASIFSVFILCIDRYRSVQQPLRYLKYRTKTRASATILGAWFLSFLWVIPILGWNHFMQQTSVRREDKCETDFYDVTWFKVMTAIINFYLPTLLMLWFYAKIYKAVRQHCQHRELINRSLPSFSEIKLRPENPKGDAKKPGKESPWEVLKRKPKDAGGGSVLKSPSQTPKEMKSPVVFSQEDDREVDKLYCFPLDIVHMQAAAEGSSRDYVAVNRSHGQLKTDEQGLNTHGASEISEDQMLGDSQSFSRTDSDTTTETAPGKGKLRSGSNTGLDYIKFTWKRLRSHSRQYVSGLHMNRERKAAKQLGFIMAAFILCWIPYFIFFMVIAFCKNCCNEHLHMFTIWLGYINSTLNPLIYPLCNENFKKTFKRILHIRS
Chain of 5-hydroxytryptamine receptor 1A (Homo sapiens) (P08908 whole entry): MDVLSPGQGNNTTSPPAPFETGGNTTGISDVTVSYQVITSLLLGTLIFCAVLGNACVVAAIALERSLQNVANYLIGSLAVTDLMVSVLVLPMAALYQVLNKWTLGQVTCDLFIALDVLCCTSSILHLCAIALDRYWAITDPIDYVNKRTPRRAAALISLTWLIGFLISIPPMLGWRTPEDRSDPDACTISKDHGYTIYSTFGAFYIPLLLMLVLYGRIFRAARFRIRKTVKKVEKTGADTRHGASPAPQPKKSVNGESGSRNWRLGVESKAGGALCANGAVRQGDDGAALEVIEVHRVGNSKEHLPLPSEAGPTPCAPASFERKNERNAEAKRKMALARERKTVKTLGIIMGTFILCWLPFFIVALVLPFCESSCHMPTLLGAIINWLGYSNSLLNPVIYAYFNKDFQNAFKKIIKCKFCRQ
Chain of Cytochrome P450 2C9 (P11712 whole entry): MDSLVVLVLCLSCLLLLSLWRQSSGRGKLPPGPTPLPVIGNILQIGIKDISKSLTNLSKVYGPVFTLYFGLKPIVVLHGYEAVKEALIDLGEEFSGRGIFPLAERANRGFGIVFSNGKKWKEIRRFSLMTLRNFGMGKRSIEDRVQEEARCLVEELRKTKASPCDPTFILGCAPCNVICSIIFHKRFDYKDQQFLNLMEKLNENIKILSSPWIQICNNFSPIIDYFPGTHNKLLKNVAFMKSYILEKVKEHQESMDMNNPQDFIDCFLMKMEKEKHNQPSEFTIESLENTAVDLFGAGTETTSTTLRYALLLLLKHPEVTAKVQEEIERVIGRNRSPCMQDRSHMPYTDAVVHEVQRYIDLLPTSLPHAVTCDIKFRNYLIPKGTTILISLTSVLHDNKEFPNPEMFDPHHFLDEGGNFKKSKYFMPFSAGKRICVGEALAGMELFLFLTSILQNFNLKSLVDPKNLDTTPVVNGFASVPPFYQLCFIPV
Chain of Cysteinyl leukotriene receptor 2 (Homo sapiens) (Q9NS75 whole entry): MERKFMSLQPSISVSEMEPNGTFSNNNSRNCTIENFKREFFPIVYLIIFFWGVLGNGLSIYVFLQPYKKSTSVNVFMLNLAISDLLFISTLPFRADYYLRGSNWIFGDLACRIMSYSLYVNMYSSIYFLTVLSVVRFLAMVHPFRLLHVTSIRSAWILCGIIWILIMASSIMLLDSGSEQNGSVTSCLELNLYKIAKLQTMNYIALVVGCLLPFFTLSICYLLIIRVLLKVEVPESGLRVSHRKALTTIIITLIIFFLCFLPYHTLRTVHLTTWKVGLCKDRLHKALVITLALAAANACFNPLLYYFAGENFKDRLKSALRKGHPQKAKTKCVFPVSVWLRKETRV
Chain of Adenosine receptor A1 (Homo sapiens) (P30542 whole entry): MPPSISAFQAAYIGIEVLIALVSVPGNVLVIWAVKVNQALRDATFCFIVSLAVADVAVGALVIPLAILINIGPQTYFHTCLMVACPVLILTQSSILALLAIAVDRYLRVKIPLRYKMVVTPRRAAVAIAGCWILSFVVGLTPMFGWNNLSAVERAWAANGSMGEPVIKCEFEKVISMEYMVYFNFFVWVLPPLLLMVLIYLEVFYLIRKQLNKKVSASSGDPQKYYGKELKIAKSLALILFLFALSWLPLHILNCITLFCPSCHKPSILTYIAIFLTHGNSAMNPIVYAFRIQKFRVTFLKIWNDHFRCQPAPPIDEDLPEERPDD
Chain of Cytochrome P450 2D6 (P10635 whole entry): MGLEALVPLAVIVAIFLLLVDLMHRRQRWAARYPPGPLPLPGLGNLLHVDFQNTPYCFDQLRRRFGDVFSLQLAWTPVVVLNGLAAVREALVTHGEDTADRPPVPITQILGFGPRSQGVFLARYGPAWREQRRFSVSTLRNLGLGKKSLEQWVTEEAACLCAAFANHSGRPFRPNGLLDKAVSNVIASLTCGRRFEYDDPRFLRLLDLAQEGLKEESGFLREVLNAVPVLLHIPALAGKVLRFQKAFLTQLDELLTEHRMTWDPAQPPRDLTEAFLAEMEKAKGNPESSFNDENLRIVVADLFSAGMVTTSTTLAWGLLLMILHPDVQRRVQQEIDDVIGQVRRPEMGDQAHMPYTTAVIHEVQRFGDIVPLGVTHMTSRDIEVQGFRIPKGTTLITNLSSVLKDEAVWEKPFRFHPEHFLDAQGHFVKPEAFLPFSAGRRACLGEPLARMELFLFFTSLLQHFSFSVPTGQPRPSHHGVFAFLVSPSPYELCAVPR
Chain of D(3) dopamine receptor (Homo sapiens) (P35462 whole entry): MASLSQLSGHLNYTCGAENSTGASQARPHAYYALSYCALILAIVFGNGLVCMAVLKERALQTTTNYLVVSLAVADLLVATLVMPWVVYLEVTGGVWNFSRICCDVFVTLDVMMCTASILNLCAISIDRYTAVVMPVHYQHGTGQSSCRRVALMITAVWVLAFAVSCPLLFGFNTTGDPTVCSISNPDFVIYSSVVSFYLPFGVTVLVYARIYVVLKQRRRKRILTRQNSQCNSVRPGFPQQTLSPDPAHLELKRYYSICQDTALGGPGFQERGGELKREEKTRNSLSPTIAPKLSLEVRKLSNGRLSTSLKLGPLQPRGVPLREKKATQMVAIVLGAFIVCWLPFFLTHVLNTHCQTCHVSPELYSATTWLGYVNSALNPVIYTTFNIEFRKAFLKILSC
Chain of 5-hydroxytryptamine receptor 1B (Homo sapiens) (P28222 whole entry): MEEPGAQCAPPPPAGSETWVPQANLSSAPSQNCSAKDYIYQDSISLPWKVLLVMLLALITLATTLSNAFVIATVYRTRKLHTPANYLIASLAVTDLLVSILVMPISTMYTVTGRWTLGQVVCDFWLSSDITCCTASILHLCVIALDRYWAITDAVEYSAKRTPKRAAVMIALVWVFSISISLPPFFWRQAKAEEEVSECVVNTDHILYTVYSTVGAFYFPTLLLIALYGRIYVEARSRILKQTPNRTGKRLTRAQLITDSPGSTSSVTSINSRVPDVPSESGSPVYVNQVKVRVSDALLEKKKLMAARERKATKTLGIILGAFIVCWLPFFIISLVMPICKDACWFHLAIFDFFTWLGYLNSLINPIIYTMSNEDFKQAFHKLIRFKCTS

SMILES: CCOC(=O)N1[C@@H]2CC[C@H]1C[C@H](CN1CC[C@@H](N3Cc4ccccc4NC3=O)C1)C2
- Activity [1]: 81%
- IC50 (Cytochrome P450 2C9): > 2000 nM
- IC50 (Cytochrome P450 2D6): > 2000 nM
- inhibition [2]: 6%
- EC50 [3]: 14 nM
- Activity [4]: 3%
- Activity [5]: 0.03%
- Activity [6]: 0.49%
- Activity [7]: -2.42%
- Activity [8]: 1%
- Activity [9]: 0.06%
- Activity [10]: -1.26%
- Activity [11]: -0.18%
- inhibition [12]: -3.67%
- inhibition (CHO): 4.47%
- inhibition [13]: 18.8%
- inhibition [14]: -0.04%
- inhibition [15]: -5.25%
- inhibition [16]: 0.91%

Source: ChEMBL document CHEMBL3632469, “Discovery of dihydroquinazolinone derivatives as potent, selective, and CNS-penetrant M(1) and M(4) muscarinic acetylcholine receptors agonists” (Bioorg Med Chem Lett, 2015)
